Consider ten compounds from US4016280A, “4,4-Diarylpiperidine compositions and use” (Byk Gulden Lomberg Chemische Fabrik GmbH, priority 1969, dated 1977).

SMILES strings stand for the structures. Entries after “also recorded” stand apart in the source; their conditions may differ. Read-outs that look alike come from different tables or passages of the source.

One may read the LD50 as the dose expected to kill half of the subjects tested. A word on the ED50: it is the dose that gives a 50% effect, or the effect in half of the subjects.

Series [1] is described as follows: Acute toxicity in the albino mouse. Conditions: mouse, in vivo, Table 2. The procedure: As stated above, the compounds of formula I have advantageous central nervous system stimulating properties. Side-effects, as they are encountered on administration of amphetamine-type stimulants, are produced to a much lesser extent by the 4,4-diphenylpiperidine compounds, if at all. […] The tests were carried out according to known and accepted pharmacological standard test methods.
a Acute toxicity 150 mg./kg. 100 mg./kg.

In series [2] the test system is albino mouse. Briefly: General behaviour of the albino mouse with different doses. The series is classed as in vivo. Conditions: albino mouse; for Locomotory activity / Restlessness Stereotype / Salivation / Vigilance: different doses per os, Examples 28, 29: 50 to 300 mg/kg. On the procedure: Acute toxi- General behaviour of the albino
city in the mouse with different doses*
(§1) *drugs administered per os
(§2) **administered in doses from 50 to 300 mg/kg

For series [3], the system named is albino mouse. Briefly: Antagonism in the albino mouse of reserpine (preventive and curative ptosis/sedation). Conditions: reserpine 2mg/kg sc., drug per os; for ED50: Mus musculus, po. Format: in vivo. On the procedure:
(§3) Antagonism in the albino mouse
(§4) Com- Preventive Curative catalepsy
(§5) of tion dation p.o.) i.p.)
as §1, §2

Series [4] deals with albino mouse. The series can be described thus: Antagonism in the albino mouse of perphenazine catalepsy. The series is classed as in vivo. As to conditions: perphenazine 10 mg/kg p.o., drug per os, Examples 28, 29: 50 to 300 mg/kg; for ED50: Mus musculus, po. The procedure:
as §3, §4, §5, §1, §2

In series [5] the test system is albino mouse. Briefly: Antagonism in the albino mouse of tremorine tremor. As to conditions: tremorine 15 mg/kg i.p., drug per os, Examples 28, 29: 50 to 300 mg/kg; for ED50: Mus musculus, po. The series is classed as in vivo. The procedure:
as §3, §5, §1, §2

For series [6] the following is noted: Marshall, Brit. J. Pharmacol. 10, 270 (1955), technique of Schild; cited from earlier work.
The mark [7] stands for this setting: iv, i.v., read-out: Acute toxicity in the albino mouse LD50 i.v.
The mark [8] stands for this setting: Examples 28, 29: 50 to 300 mg/kg, read-out: Reserpine antagonism, Curative Sedation ED50.
Setting [9] is: read-out: Reserpine antagonism, Preventive Sedation ED50.
Where [10] appears, read: read-out: Reserpine antagonism, Preventive ptosis ED50.
Setting [11] is: Examples 28, 29: 50 to 300 mg/kg.
[12] abbreviates: Examples 28, 29: 50 to 300 mg/kg, read-out: Reserpine antagonism, Curative ptosis ED50.

Consider `CCC(C)N1CCC(c2ccccc2)(c2ccccc2)CC1` (stereo not shown) [Example 26, 1-(secondary Butyl)-4,4-diphenylpiperidine], for which the median lethal dose (LD50) in series [1] (setting [7]) came to 19 mg/kg. For the same compound, in the series on albino mouse [2], the “Locomotory activity (in words)” value is “only slightly increased”; the “Restlessness, stereotypia or salivation (in words)” value (“Restlessness … (in words)” for short) is “without causing restlessness, sterotypia or salivation”; the “Vigilance of the animal (in words)” value is given as “strong increase”; the Locomotory activity entry is given as “(+)”. In the series on albino mouse [2], the “Restlessness Stereotype” value is reported as “.phi. (no effect)”, the Salivation result is “.phi. (no effect)” and the Vigilance entry is listed as “++”. For the same compound, the median effective dose (ED50) in the series with albino mouse [3] (setting [8]) amounted to 10 mg/kg. In addition, in the series with albino mouse [3] (setting [9]), the ED50 stood at 10 mg/kg. The ED50 with albino mouse [3] (setting [10]) amounted to 25 mg/kg. Also, the “Reserpine antagonism, Curative ptosis ED50” value in the series with albino mouse [3] (setting [11]) is “(+)”. The compound further had an ED50 in the series with albino mouse [4] of 7 mg/kg. The same compound showed an ED50 with albino mouse [5] of 5 mg/kg. The Antihistaminic activity result in series [6] is listed as “devoid of any therapeutically-utilizable antihistaminic activity; also recorded: devoid of any therapeutically utilizable antihistaminic activity”.

With `OCCN1CCC(c2ccccc2)(c2ccccc2)CC1` [Example 9, 1-(2-Hydroxyethyl)-4,4-diphenylpiperidine], the LD50 in series [1] (setting [7]) was found to be 33 mg/kg. For the same compound, in the series with albino mouse [2], the “Locomotory activity (in words)” value is recorded as “only slightly increased”; the “Restlessness … (in words)” value is “without causing restlessness, sterotypia or salivation”; the “Vigilance of the animal (in words)” value is given as “strong increase”; the Locomotory activity entry is given as “(+)”. In the series on albino mouse [2], the “Restlessness Stereotype” value was “.phi. (no effect)”, the Salivation result is on record as “.phi. (no effect)” and the Vigilance entry was “++”. Besides, the ED50 in the series on albino mouse [3] (setting [8]) turned out to be 15 mg/kg. In addition, the ED50 in the series on albino mouse [3] (setting [9]) stood at 8 mg/kg. Besides, in the series with albino mouse [3] (setting [10]), the ED50 is 10 mg/kg. Moreover, in the series with albino mouse [3] (setting [11]), the “Reserpine antagonism, Curative ptosis ED50” value is given as “(+)”. In addition, in the series with albino mouse [4], the ED50 was 15 mg/kg. In the series on albino mouse [5], the 50% effect level (ED50) was put at a dose of 10 mg/kg.

On to `OCCCN1CCC(c2ccccc2)(c2ccccc2)CC1` [Example 30, 1-(3-hydroxypropyl)-4,4-diphenylpiperidine], for which the 50% lethal dose (LD50) in series [1] (setting [7]) is 32 mg/kg. Also, in the series with albino mouse [2], the “Locomotory activity (in words)” value was “only slightly increased”; the “Restlessness … (in words)” value is “without causing restlessness, sterotypia or salivation”; the “Vigilance of the animal (in words)” value is recorded as “strong increase”; the Locomotory activity result was “+ (increase)”. In the series on albino mouse [2], the “Restlessness Stereotype” value is “.phi. (no effect)”, the Salivation result is reported as “.phi. (no effect)” and the Vigilance result was “++”. The median effective dose (ED50) in the series with albino mouse [3] (setting [9]) was found to be 25 mg/kg. Also, the median effective dose (ED50) in the series on albino mouse [3] (setting [10]) stood at 25 mg/kg. Moreover, in the series on albino mouse [3] (setting [11]), the “Reserpine antagonism, Curative Sedation ED50” value is “.phi. (no effect)” and the “Reserpine antagonism, Curative ptosis ED50” value was “(+)”. Moreover, it took a dose of 5 mg/kg to reach the 50% effect level in the series with albino mouse [4] (ED50). This compound also yielded an ED50 in the series with albino mouse [5] of 5 mg/kg.

`COCCCN1CCC(c2ccccc2)(c2ccccc2)CC1` [Example 7, 1-(3-Methoxypropyl)-4,4-diphenylpiperidine]: the LD50 in series [1] (setting [7]) was determined as 30 mg/kg. In the series on albino mouse [2], the “Locomotory activity (in words)” value is on record as “only slightly increased”; the “Restlessness … (in words)” value is given as “without causing restlessness, sterotypia or salivation”; the “Vigilance of the animal (in words)” value was “strong increase”; the Locomotory activity entry is on record as “(+)”. Further, in the series with albino mouse [2], the “Restlessness Stereotype” value is given as “.phi. (no effect)”, the Salivation result was “.phi. (no effect)” and the Vigilance result is on record as “++”. The same compound had an ED50 with albino mouse [5] of 3 mg/kg.

As to `c1ccc(C2(c3ccccc3)CCNCC2)cc1` [Example 19, 4,4-Diphenylpiperidine], in series [1] (setting [7]), the LD50 was determined as 25 mg/kg. In addition, in the series on albino mouse [2], the “Locomotory activity (in words)” value is given as “only slightly increased”; the “Restlessness … (in words)” value is “without causing restlessness, sterotypia or salivation”; the “Vigilance of the animal (in words)” value is “strong increase”; the Locomotory activity entry was “(+)”. In the series on albino mouse [2], the “Restlessness Stereotype” value is reported as “.phi. (no effect)”, the Salivation result was “.phi. (no effect)” and the Vigilance entry was “++”. Also, in the series on albino mouse [3] (setting [8]), the 50% effective dose (ED50) amounted to 10 mg/kg. In addition, in the series with albino mouse [3] (setting [12]), the 50% effective dose (ED50) is more than 50 mg/kg. Besides, in the series with albino mouse [3] (setting [9]), the median effective dose (ED50) was 5 mg/kg. Moreover, the ED50 with albino mouse [3] (setting [10]) was 10 mg/kg. For the same compound, the ED50 in the series with albino mouse [4] turned out to be 20 mg/kg. Further, the 50% effective dose (ED50) in the series with albino mouse [5] is 2 mg/kg.

As for `CCN1CCC(c2ccccc2)(c2ccccc2)CC1` [Example 3, 1-Ethyl-4,4-diphenylpiperidine], the LD50 was found to be 45 mg/kg in series [1] (setting [7]) and 150 mg/kg in series [1] (po, p.o., read-out: Acute toxicity in the albino mouse LD50 p.o.). In the series on albino mouse [2], the Locomotory activity result is “(+)”. The “Restlessness Stereotype” value with albino mouse [2] is on record as “.phi. (no effect)”. For the same compound, the Salivation result in the series with albino mouse [2] is on record as “.phi. (no effect)”. In addition, the Vigilance result in the series with albino mouse [2] is reported as “++”. The median effective dose (ED50) was 50 mg/kg in the series on albino mouse [3] (setting [8]); more than 50 mg/kg in the series with albino mouse [3] (setting [12]); 5 mg/kg with albino mouse [3] (setting [9]); 5 mg/kg with albino mouse [3] (setting [10]); 2 mg/kg in the series with albino mouse [4]; 1 mg/kg in the series with albino mouse [5].

In the case of `c1ccc(CCN2CCC(c3ccccc3)(c3ccccc3)CC2)cc1` [Example 5, 1-Phenethyl-4,4-diphenylpiperidine], the LD50 in series [1] (setting [7]) was 19 mg/kg. Moreover, in the series on albino mouse [2], the Locomotory activity entry is recorded as “- (decrease)”, the “Restlessness Stereotype” value is on record as “.phi. (no effect)”, the Salivation result was “.phi. (no effect)” and the Vigilance result is “+ (increase)”. Moreover, in the series with albino mouse [2] (per os), the “Remark under Locomotory activity (Ataxy)” value is recorded as “Ataxy”. The median effective dose (ED50) with albino mouse [3] (setting [9]) was determined as 3 mg/kg. Further, in the series with albino mouse [3] (setting [10]), the ED50 came out at 3 mg/kg. In the series on albino mouse [3] (setting [11]), the “Reserpine antagonism, Curative Sedation ED50” value was “(+)” and the “Reserpine antagonism, Curative ptosis ED50” value is “(+)”. The “Tremorine tremor antagonism ED50” value in the series on albino mouse [5] is recorded as “.phi. (no effect)”.

Take `CC(=O)CCN1CCC(c2ccccc2)(c2ccccc2)CC1` [Example 32, 1-(2-Acetoethyl)-4,4-diphenylpiperidine]: in the series with albino mouse [2], the “Locomotory activity (in words)” value is reported as “only slightly increased”; the “Restlessness … (in words)” value was “without causing restlessness, sterotypia or salivation”; the “Vigilance of the animal (in words)” value is given as “strong increase”; the Locomotory activity result is “(+)”. For the same compound, in the series on albino mouse [2], the “Restlessness Stereotype” value is “.phi. (no effect)”, the Salivation entry was “.phi. (no effect)” and the Vigilance result is recorded as “++”. Also, in the series on albino mouse [3], the “Reserpine antagonism, Preventive Sedation ED50” value is 15 mg/kg and the “Reserpine antagonism, Preventive ptosis ED50” value is on record as 10 mg/kg. Further, in the series with albino mouse [3] (setting [11]), the “Reserpine antagonism, Curative Sedation ED50” value was ~ 50 mg/kg and the “Reserpine antagonism, Curative ptosis ED50” value was more than 60 mg/kg. The “Perphenazine catalepsy antagonism ED50” value with albino mouse [4] stood at 45 mg/kg. The “Tremorine tremor antagonism ED50” value in the series with albino mouse [5] is 15 mg/kg.

Turning to `CC(=O)CN1CCC(c2ccccc2)(c2ccccc2)CC1` [Example 17, 1-Acetonyl-4,4-diphenylpiperidine], the LD50 in series [1] (setting [7]) is 34 mg/kg. For the same compound, in the series with albino mouse [2], the “Locomotory activity (in words)” value is listed as “only slightly increased”; the “Restlessness … (in words)” value is given as “without causing restlessness, sterotypia or salivation”; the “Vigilance of the animal (in words)” value was “strong increase”; the Locomotory activity result is given as “(+)”. For the same compound, in the series with albino mouse [2], the “Restlessness Stereotype” value was “.phi. (no effect)”, the Salivation result is recorded as “.phi. (no effect)” and the Vigilance entry was “++”. Also, the ED50 in the series with albino mouse [3] (setting [8]) was approximately 25 mg/kg. Moreover, the ED50 in the series on albino mouse [3] (setting [12]) is more than 25 mg/kg. Besides, in the series on albino mouse [3] (setting [9]), the ED50 is 15 mg/kg. The ED50 in the series on albino mouse [3] (setting [10]) came out at 12 mg/kg. In the series on albino mouse [4], this compound returned an ED50 of more than 25 mg/kg. For the same compound, in the series on albino mouse [5], the 50% effective dose (ED50) is 17 mg/kg.

Take `c1ccc(CN2CCC(c3ccccc3)(c3ccccc3)CC2)cc1` [Example 10, 1-Benzyl-4,4-diphenylpiperidine]: in series [1] (setting [7]), the LD50 was 20 mg/kg. Further, in the series on albino mouse [2], the “Locomotory activity (in words)” value is listed as “only slightly increased”; the “Restlessness … (in words)” value is listed as “without causing restlessness, sterotypia or salivation”; the “Vigilance of the animal (in words)” value is “strong increase”; the Vigilance entry is recorded as “++”.
